A word on the IC50: it is the concentration that inhibits the measured activity by half. By inhibition is commonly meant the change of the read-out against control, counted positive when it falls. A low value points to little suppression.

Here are results for six compounds from patent US8846627B2, “Method for treatment of malaria” (The Second Military Medical University, priority 2009, dated 2014).

SMILES strings stand for the structures. Where two headings read alike, the source gives them in different places.

Assay [1] concerns chloroquine sensitive (D6) strain of P. falciparum. Put plainly: In vitro anti-malarial activity assay (plasmodial LDH activity), D6 clone. To be noted: Plasmodium falciparum, read-out: P. falciparum (D6 Clone) IC50. Type of assay: cell-based. As for the experimental part: (§1) In vitro anti-malarial activity of the representative compounds was determined against chloroquine sensitive (D6) and chloroquine-resistant (W2) strains of P. falciparum.
(§2) The anti-malarial activity was determined by measuring plasmodial LDH activity as described earlier (Jain, M.; Khan, S. I.; Tekwani, B. L.; Jacob, M. R.; Singh, S.; Singh, P. P.; Jain, R. Synthesis, anti-malarial, antileishmanial, and antimicrobial activities of some 8-quinolinamine analogues. Bioorg. Med. Chem. 2005, 13, 4458-4466). A suspension of red blood cells infected with D6 or W2 strains of P. falciparum (200 with 2% parasitemia and 2% hematocrit in RPMI 1640 medium supplemented with 10% human serum and 60 µg/mL Amikacin) was added to the wells of a 96-well plate containing 10 μL of serially diluted test samples. The plate was flushed with a gas mixture of 90% N2, 5% O2, and 5% CO2 and incubated at 37° C. for 72 h in a modular incubation chamber (Billups-Rothenberg, Calif.). Parasitic LDH activity was determined by using Malstat™ reagent (Flow Inc., Portland, Oreg.) according to the procedure of Makler and Hinrichs (M. T. Makler and D. J. Hinrichs, Measurement of the lactate dehydrogenase activity of Plasmodium falciparum as an assessment of parasitemia. J. Am. J. Trop. Med. Hyg. 1993, 48(2):205-210). Briefly, 20 μl, of the incubation mixture was mixed with 100 μL of the Malstat™ reagent and incubated at room temperature for 30 min Twenty microliters of a 1:1 mixture of NBT/PES (Sigma, St. Louis, Mo.) was then added and the plate was further incubated in the dark for 1 h. The reaction was then stopped by the addition of 100 μL of a 5% acetic acid solution. The plate was read at 650 nm. Artemisinin and chloroquine were included in each assay as the drug controls. IC50 values were computed from the dose-response curves. To determine the selectivity index of anti-malarial activity of compounds, their cytotoxicity in vitro to mammalian cells was also determined. The assay was performed in 96-well tissue culture-treated plates as described earlier (J. Mustafa, S. I. Khan, G. Ma, L. A. Walker and I. A. Khan, Synthesis and Anticancer Activities of Fatty Acid Analogs of Podophyllotoxin. Lipids. 2004, 39(2):167-172). Vero cells (monkey kidney fibroblasts) were seeded to the wells of 96-well plate at a density of 25,000 cells/well and incubated for 24 h. Samples at different concentrations were added and plates were again incubated for 48 h. The number of viable cells was determined by Neutral Red assay. IC50 values were obtained from dose-response curves. Doxorubicin was used as a positive control.

Assay [2] deals with chloroquine-resistant (W2) strain of P. falciparum. The assay is described as follows: In vitro anti-malarial activity assay (plasmodial LDH activity), W2 clone. Type of assay: cell-based. The settings on record: Plasmodium falciparum, read-out: P. falciparum (W2 Clone) IC50. On the procedure:
as §1, §2

The test system of assay [3] is Plasmodium berghei (chloroquine sensitive strain). Put plainly: In vivo anti-malarial activity, 4-day suppressive test in infected mice. To be noted: Swiss albino mice; for Day 4 % Suppression / Day 5 % Suppression / Day 6 % Suppression: intragastric. On the procedure: Tests were performed in a 4-day suppressive standard test using the methods of David, Thurston and Peters (David, A. F., Philip, J. R., Simon, L. C., Reto B., and Solomon N. Antimalarial drug discovery: Efficacy models for compound screening. Nature Reviews. 2004; 3: 509-520). The plasmodium species, that is most widely employed in rodent malaria parasite-Plasmodium berghei (chloroquine sensitive strain), was used to infect Swiss albino mice for a fourday suppressive test. The P. berghei was subsequently maintained in the laboratory by serial blood passage from mouse to mouse. For the study, a donor mouse with a rising parasitemia of 20% was sacrificed and its blood was collected in a slightly heparinized syringe from the auxiliary vessels. The blood was diluted with Trisodium Citrate (TC) medium so that each 0.2 ml contained approximately 107 infected red cells. Each animal received inoculums of about […], which is expected to produce a steadily rising infection in mice.
Male Swiss albino mice were used. The mice were allowed to acclimatize to the laboratory environment under a controlled temperature of 20° C. and at optimum humidity for at least three days before being subjected to the experiments. All of the mice were divided into groups of six, and infected with malaria parasites.
The infection of the recipient mice was initiated by needle passage of the above mentioned parasite preparation, from the donor to healthy test animals via an intraperitoneal route. Therefore, P. berghei infected red blood cells were intraperitoneally injected into the mice from the blood diluted with TC medium so that each 0.2 ml had approximately 106-107 infected red cells (parasite per kg of body weight). Each mouse was infected with single inoculums of 0.2 ml blood.
The 4-day procedures were started on Mondays while blood smears for parasitemia were collected on Fridays. The infected mice were weighed, randomly divided into treatment, vehicle and standard drug groups. […] The compounds were administered through intra gastric route using the stomach tube to ensure the safe ingestion of the compounds and the vehicle.
Thin smears of blood films were obtained from the peripheral blood on the tail from each mouse on day four after infection. The smears were placed on microscopic slides, fixed with methanol and stained with Gemsa at pH 7.2, for parasitemia. […] The number of parasitized erythrocytes in each of the 10-50 such fields were counted three times and the average was calculated to give the Parasitemia of each individual animal. Percentage of suppression was calculated by using the following formula. % Suppression=(Parasitemia in negative control−Parasitemia in study group)/Parasitemia in negative control

Assay [4] addresses T1, Falcipain-2 protease (FP-2) (Plasmodium falciparum, UniProt Q8I6U4).
T1 construct: The falcipain-2 fragment was amplified by the polymerase chain reaction (PCR); His6 (N-terminal MRGS-His6 supplied by the pQE-30 vector; own knowledge of the vector, consistent with the Ni2+-NTA purification) (N); made in house; host or cells: E. coli M15
T1 sequence (Q8I6U4 244-484): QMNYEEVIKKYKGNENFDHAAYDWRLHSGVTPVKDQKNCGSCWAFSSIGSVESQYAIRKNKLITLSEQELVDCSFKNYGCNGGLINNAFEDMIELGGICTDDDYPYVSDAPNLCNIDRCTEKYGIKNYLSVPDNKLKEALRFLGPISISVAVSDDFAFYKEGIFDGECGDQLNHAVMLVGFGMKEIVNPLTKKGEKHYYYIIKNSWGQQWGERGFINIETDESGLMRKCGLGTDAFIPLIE
The assay is described as follows: Falcipain-2 protease inhibition assay (fluorescence reaction rate). Type of assay: biochemical. To be noted: for inhibition at 10 µM: 10 μM compound, pH 5.5; for IC50: pH 5.5, sigmoidal fit, read-out: IC50 against falcipain-2. On the procedure:
(1) Expression and Purification of Falcipain-2 and Refolding of FP-2 Inclusion Bodies Protein
(2) The Determination of the Invention Compounds' Inhibitory Activity Against FP-2
FP-2 protein and test compounds dissolved in DMSO (prepared from EXAMPLES 1-4) were added to 197 μL, buffer, containing 100 mM NaOAc, 10 mM DTT, pH 5.5 (final concentration 10 μg/mL). The test compound were Stenopalustroside A, Stenopalustroside D, Tiliroside, kaempferol 3-O-β-(6″-caffeoylglucoside) and kaempferol 3-(2,4-di-E-p-coumaroyl-rhamnoside), respectively, which final concentration were 10 μM and 0 μM (as negative control). These compounds were incubated for […] and employed MD SpectraMax M5 Microplate Reader to continuous detect the RFU for 15 min, at excitation 355 nm and emission 460 nm Calculate the reaction rate Km, and obtain percentage inhibitory rate of the test compound at 10 μM by the following equation,
The equation is: (Kmof control group−Kmof experimental group)/Kmof control group×100%
Select […] compounds with over 50% inhibitory rate to detect IC50, and utilize the compound solutions prepared from EXAMPLE 1 to EXAMPLE 4, Stenopalustroside A, tiliroside kaempferol 3-O-β-(6″-caffeoylglucoside), and the experimental methods and system followed as EXAMPLE 6. According to FP-2 activity reaction rate Km with compounds at different concentrations, we can calculate the inhibitory rate of compounds against FP-2 at different concentration. The IC50 value was fitted with utilizing the Sigmoidal Equation by Origin software.

The mark [5] stands for this setting: D6, 72 h incubation, LDH readout.
Where [6] appears, read: W2, 72 h incubation, LDH readout.

Consider `C[C@@H]1CC[C@H]2[C@@H](C)C(=O)O[C@@H]3O[C@@]4(C)CC[C@@H]1[C@]32OO4` [Artemisinine, reference compound], for which the IC50 in assay [1] (setting [5]) and in assay [2] (setting [6]) was below 26.4 µM in each case.

For `CCN(CC)CCCC(C)Nc1ccnc2cc(Cl)ccc12` (stereo not shown) [Chloroquine, reference compound], in assay [1] (D6, 72 h), the IC50 was below 26.4 µM. In assay [2] (W2, 72 h), the IC50 is 160 µM. In assay [3] (10 mg/kg daily for 4 days), the “Day 4 % Suppression” value was 100%, the “Day 5 % Suppression” value turned out to be 100% and the “Day 6 % Suppression” value is listed as 100%.

Regarding `O=C(/C=C\c1ccc(O)cc1)OCC1O[C@@H](Oc2c(-c3ccc(O)cc3)oc3cc(O)cc(O)c3c2=O)C(O)[C@H](OC(=O)/C=C\c2ccc(O)cc2)[C@@H]1O` (stereo partly shown) [Stenopalustroside A], the IC50 in assay [1] (setting [5]) was 32.8 µM. The IC50 in assay [2] (setting [6]) stood at 98.6 µM. For the same compound, in assay [4], the inhibition at 10 µM came out at 53% and the IC50 worked out at 1.45 µM. Besides, in assay [3] (200 mg/kg daily for 4 days), the “Day 4 % Suppression” value turned out to be 34.7%, the “Day 5 % Suppression” value is on record as 33.3% and the “Day 6 % Suppression” value was determined as 18.9%.

For `O=C(/C=C\c1ccc(O)cc1)OCC1O[C@@H](Oc2c(-c3ccc(O)cc3)oc3cc(O)cc(O)c3c2=O)C(O)[C@H](OC(=O)/C=C/c2ccc(O)cc2)[C@@H]1O` (stereo partly shown) [Stenopalustroside D], the IC50 in assay [1] (setting [5]) was found to be 68.4 µM; in assay [2] (setting [6]), 165 µM. In assay [4], the inhibition at 10 µM was 39.4%. Further, the “Day 4 % Suppression” value in assay [3] (10 mg/kg daily for 4 days) is reported as 30.4%; in assay [3] (50 mg/kg daily for 4 days), 60.8%; in assay [3] (100 mg/kg daily for 4 days), 56.5%; in assay [3] (200 mg/kg daily for 4 days), 43.4%; in assay [3] (400 mg/kg daily for 4 days), 8.6%. Also, the “Day 5 % Suppression” value in assay [3] (10 mg/kg daily for 4 days) was determined as 51.5%; in assay [3] (50 mg/kg daily for 4 days), 63.6%; in assay [3] (100 mg/kg daily for 4 days), 60.6%; in assay [3] (200 mg/kg daily for 4 days) it was 42.4%; in assay [3] (400 mg/kg daily for 4 days), 24.2%. For the same compound, the “Day 6 % Suppression” value in assay [3] (10 mg/kg daily for 4 days) stood at 32.4%; in assay [3] (50 mg/kg daily for 4 days) it was 58.3%; in assay [3] (100 mg/kg daily for 4 days), 45.9%; in assay [3] (200 mg/kg daily for 4 days), 37.8%; in assay [3] (400 mg/kg daily for 4 days) it was 13.5%. Moreover, in assay [3] (maximum over doses and days), the maximum suppression ratio is recorded as 60%.

For the compound `CC1O[C@@H](Oc2c(-c3ccc(O)cc3)oc3cc(O)cc(O)c3c2=O)C(OC(=O)/C=C/c2ccc(O)cc2)C(O)[C@H]1OC(=O)/C=C/c1ccc(O)cc1` (stereo partly shown) [kaempferol 3-(2,4-di-E-p-coumaroyl-rhamnoside)], the IC50 came out at 45.1 µM in assay [1] (setting [5]) and 147 µM in assay [2] (setting [6]). In addition, in assay [4], testing at 10 µM gave an inhibition of 49.4%. Also, the entries for the “Day 4 % Suppression” value in assay [3] (50 mg/kg daily for 4 days) and in assay [3] (100 mg/kg daily for 4 days) were 34.7% and 13.0%, respectively. The “Day 5 % Suppression” value in assay [3] (50 mg/kg daily for 4 days) was determined as 24.2%; in assay [3] (100 mg/kg daily for 4 days), 21.2%; in assay [3] (200 mg/kg daily for 4 days), 9.0%. Besides, the “Day 6 % Suppression” value turned out to be 29.7% in assay [3] (50 mg/kg daily for 4 days), 24.3% in assay [3] (100 mg/kg daily for 4 days) and 5.4% in assay [3] (200 mg/kg daily for 4 days).

For `O=C(/C=C/c1ccc(O)c(O)c1)OCC1O[C@@H](Oc2c(-c3ccc(O)cc3)oc3cc(O)cc(O)c3c2=O)C(O)C(O)[C@@H]1O` (stereo partly drawn) [kaempferol 3-O-β-(6″-caffeoylglucoside)], the IC50 came out at 55.8 µM in assay [1] (setting [5]), 91.3 µM in assay [2] (setting [6]) and 13.5 µM in assay [4]. The inhibition at 10 µM in assay [4] was 53%. Further, the “Day 4 % Suppression” value in assay [3] (10 mg/kg daily for 4 days) stood at 20.6%; in assay [3] (50 mg/kg daily for 4 days) it was 52.1%; in assay [3] (100 mg/kg daily for 4 days), 13.0%; in assay [3] (200 mg/kg daily for 4 days), 4.3%. Besides, the “Day 5 % Suppression” value is 27.2% in assay [3] (10 mg/kg daily for 4 days); 54.5% in assay [3] (50 mg/kg daily for 4 days); 15.1% in assay [3] (100 mg/kg daily for 4 days); 9.0% in assay [3] (200 mg/kg daily for 4 days); 6.0% in assay [3] (400 mg/kg daily for 4 days). The “Day 6 % Suppression” value in assay [3] (10 mg/kg daily for 4 days) is 37.8%; in assay [3] (50 mg/kg daily for 4 days) it was 45.9%; in assay [3] (100 mg/kg daily for 4 days) it was 10.8%; in assay [3] (200 mg/kg daily for 4 days) it was 5.4%.
